Measurements published in patent US20080261978A1, “Chemokine receptor modulators” (priority 2007, published 2008).

Columns and labels:
[1] = cited from earlier work
T-tropic HIV = experiment: Phenoscreen HIV cellular entry inhibition assay (Monogram Biosciences); conditions: Human immunodeficiency virus 1, read-out: IC50 value for viral entry inhibition

SMILES	side effect in clinical study [1]	IC50 (T-tropic HIV)
c1cc(CN2CCCNCCNCCCNCC2)ccc1CN1CCCNCCNCCCNCC1 [AMD3100]	cardiac-related side effect	
O=S(=O)(NC1CCCc2ccccc21)c1ccc(CNCc2ccccn2)cc1 (centres unmarked) [DE, 4-((pyridin-2-ylmethylamino)methyl)-N-(1,2,3,4-tetrahydronaphthalen-1-yl)benzenesulfonamide]		≤ 10 µM
O=S(=O)(c1ccc(CNCc2ccccn2)cc1)N(Cc1ccccc1)Cc1nc2ccccc2[nH]1 [DH, N-((1H-benzo[d]imidazol-2-yl)methyl)-N-benzyl-4-((pyridin-2-ylmethylamino)methyl)benzenesulfonamide]		≤ 10 µM
O=S(=O)(c1ccc(CNCCCN2CCOCC2)cc1)N(Cc1ccccc1)Cc1ccccc1 [DX, N,N-dibenzyl-4-((3-morpholinopropylamino)methyl)benzenesulfonamide]		≤ 10 µM
CCNCc1ccc(S(=O)(=O)N(Cc2ccccc2)Cc2ccccc2)cc1 [DZ, N,N-dibenzyl-4-((ethylamino)methyl)benzenesulfonamide]		≤ 10 µM
